Test results taken from patent publication US11793801B2, “Treatment of pain and neurological conditions” (BioCorRx, Inc., priority 2020, dated 2023).
Read-outs that look alike come from different tables or passages of the source.

What was measured:
Delta (DOP) receptor = Delta (DOP) receptor (Homo sapiens, UniProt P41143); test: in vitro pharmacology at Delta (DOP) receptor; type: biochemical
Sigma opiate sites = test: in vitro pharmacology at Sigma sites; type: binding
[1] = target: T1, adrenergic receptor Alpha 1B (Homo sapiens, UniProt P35368); test: in vitro antagonistic activity, adrenergic Alpha 1B; type: biochemical
T1 sequence (P35368 1-520): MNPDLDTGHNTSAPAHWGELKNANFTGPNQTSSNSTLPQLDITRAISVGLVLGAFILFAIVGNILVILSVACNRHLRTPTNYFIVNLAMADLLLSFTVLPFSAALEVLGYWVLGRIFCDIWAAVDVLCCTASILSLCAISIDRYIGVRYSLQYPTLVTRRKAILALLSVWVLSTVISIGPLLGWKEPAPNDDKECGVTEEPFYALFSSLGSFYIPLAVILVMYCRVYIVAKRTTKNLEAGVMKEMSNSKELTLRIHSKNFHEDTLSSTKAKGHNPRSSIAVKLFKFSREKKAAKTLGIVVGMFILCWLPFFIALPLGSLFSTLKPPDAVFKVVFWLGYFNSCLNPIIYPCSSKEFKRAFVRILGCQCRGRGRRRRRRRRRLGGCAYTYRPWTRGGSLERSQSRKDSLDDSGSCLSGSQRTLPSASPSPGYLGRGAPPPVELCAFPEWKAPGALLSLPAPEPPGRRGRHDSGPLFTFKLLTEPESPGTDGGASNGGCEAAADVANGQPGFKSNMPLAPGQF

[2] = target: T2, adrenergic receptor Alpha 2B (Homo sapiens, UniProt P18089); test: in vitro antagonistic activity, adrenergic Alpha 2B; type: biochemical
T2 sequence (P18089 1-450): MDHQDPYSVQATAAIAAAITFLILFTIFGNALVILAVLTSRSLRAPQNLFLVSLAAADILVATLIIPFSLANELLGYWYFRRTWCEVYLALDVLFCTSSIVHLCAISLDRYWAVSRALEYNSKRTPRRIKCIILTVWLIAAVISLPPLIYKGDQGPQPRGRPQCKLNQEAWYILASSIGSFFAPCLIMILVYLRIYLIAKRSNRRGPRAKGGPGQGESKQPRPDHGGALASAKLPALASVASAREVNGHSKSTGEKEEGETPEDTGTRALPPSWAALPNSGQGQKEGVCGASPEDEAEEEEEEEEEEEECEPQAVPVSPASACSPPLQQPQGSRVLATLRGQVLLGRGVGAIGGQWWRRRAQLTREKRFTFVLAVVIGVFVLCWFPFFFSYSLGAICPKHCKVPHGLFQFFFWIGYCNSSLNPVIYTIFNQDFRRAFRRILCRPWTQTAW

[3] = target: T3, adrenergic receptor Alpha 2C (Homo sapiens, UniProt P18825); test: in vitro antagonistic activity, adrenergic Alpha 2C; type: biochemical
T3 sequence (P18825 1-462): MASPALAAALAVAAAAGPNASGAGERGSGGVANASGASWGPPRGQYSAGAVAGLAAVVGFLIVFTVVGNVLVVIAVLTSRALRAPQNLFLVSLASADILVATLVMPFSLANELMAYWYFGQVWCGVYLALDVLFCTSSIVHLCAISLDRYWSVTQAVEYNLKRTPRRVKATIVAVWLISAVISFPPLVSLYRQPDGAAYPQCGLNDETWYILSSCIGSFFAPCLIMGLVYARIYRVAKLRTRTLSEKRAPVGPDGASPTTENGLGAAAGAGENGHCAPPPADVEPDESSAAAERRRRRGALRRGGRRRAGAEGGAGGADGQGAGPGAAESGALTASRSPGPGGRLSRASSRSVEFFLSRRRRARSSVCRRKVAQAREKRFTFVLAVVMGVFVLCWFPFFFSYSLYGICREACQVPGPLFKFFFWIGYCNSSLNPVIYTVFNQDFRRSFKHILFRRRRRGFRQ

histamine H1 receptor = histamine H1 receptor (Homo sapiens, UniProt P35367); test: in vitro antagonistic activity, histamine H1; type: biochemical
[4] = target: T4, cholinergic muscarinic receptor 1 (Homo sapiens, UniProt P11229); test: in vitro antagonistic activity, muscarinic 1; type: biochemical
T4 sequence (P11229 1-460): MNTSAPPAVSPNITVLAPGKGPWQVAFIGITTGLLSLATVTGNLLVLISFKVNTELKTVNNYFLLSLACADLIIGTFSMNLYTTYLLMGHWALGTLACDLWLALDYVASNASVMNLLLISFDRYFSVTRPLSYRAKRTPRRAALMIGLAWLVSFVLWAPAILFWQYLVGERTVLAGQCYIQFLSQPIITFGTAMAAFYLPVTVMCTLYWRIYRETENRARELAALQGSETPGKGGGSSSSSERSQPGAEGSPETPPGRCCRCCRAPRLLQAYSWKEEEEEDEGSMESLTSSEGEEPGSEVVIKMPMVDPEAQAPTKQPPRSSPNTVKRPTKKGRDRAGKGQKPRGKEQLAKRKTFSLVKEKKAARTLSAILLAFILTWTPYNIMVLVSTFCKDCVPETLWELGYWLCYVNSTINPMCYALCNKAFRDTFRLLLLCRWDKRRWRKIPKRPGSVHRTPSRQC

[5] = target: cholinergic muscarinic receptor 3 (Homo sapiens, UniProt P20309); test: in vitro antagonistic activity, muscarinic 3; type: biochemical
[6] = target: T5, cholinergic muscarinic receptor 4 (Homo sapiens, UniProt P08173); test: in vitro antagonistic activity, muscarinic 4; type: biochemical
T5 sequence (P08173 1-479): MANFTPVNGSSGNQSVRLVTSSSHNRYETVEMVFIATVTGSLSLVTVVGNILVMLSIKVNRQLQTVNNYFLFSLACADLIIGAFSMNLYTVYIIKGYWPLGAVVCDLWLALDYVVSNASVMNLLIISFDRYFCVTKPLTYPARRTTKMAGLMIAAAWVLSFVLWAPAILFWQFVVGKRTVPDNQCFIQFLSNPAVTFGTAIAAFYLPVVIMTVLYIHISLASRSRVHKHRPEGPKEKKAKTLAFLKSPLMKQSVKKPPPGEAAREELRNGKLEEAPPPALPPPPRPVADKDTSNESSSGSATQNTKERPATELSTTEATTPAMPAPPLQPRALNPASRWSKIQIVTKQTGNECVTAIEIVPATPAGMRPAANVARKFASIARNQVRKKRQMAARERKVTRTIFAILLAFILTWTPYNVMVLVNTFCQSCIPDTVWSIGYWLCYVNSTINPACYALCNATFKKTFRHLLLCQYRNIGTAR

[7] = target: T6, cholinergic muscarinic receptor 5 (Homo sapiens, UniProt P08912); test: in vitro antagonistic activity, muscarinic 5; type: biochemical
T6 sequence (P08912 1-532): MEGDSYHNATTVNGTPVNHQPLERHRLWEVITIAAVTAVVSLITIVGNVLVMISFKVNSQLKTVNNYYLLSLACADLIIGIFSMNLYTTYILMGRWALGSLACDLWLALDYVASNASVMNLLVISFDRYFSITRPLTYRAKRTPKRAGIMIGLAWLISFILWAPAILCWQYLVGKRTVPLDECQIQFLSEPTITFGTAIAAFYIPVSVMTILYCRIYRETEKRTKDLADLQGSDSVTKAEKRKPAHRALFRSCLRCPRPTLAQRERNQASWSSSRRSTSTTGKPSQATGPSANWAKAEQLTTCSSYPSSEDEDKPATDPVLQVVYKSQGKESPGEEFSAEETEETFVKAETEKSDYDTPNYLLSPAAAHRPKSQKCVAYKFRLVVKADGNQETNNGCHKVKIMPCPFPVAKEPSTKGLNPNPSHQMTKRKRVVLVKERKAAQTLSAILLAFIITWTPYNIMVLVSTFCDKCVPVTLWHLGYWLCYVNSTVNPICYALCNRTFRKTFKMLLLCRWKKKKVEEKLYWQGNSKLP

dopamine D4 receptor = target: T7, dopamine D4 receptor (Homo sapiens, UniProt P21917); test: in vitro antagonistic activity, dopamine D4; type: biochemical
T7 sequence (P21917 1-419): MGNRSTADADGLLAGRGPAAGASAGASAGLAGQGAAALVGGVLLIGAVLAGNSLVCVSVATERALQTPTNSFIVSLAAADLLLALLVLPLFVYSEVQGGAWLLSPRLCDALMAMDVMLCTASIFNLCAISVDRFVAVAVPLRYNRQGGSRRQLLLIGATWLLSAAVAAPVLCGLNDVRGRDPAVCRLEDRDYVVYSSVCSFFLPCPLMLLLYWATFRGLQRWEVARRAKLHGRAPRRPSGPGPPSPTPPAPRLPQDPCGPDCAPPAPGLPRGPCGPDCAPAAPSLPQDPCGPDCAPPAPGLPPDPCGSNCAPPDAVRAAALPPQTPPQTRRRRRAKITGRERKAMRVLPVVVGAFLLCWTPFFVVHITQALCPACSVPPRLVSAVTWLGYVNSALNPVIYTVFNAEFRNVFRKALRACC

serotonin receptor 1A = target: T8, serotonin receptor 1A (Homo sapiens, UniProt P08908); test: in vitro antagonistic activity, serotonin 1A; type: biochemical
T8 sequence (P08908 1-422): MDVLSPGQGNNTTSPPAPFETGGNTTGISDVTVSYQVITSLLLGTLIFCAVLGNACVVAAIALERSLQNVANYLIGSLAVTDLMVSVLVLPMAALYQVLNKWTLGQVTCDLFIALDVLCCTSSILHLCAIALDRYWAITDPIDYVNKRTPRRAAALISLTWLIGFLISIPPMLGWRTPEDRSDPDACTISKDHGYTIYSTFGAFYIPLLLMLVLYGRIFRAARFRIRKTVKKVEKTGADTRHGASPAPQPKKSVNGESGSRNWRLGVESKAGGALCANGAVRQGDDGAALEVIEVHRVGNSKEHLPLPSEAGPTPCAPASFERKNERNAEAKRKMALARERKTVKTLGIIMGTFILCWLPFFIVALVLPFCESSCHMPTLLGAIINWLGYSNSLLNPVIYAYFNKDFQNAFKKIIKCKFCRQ

morphine addicted rats = test: opioid withdrawal signs in morphine addicted rats; type: in vivo

Sequence of cholinergic muscarinic receptor 3 (P20309 whole entry): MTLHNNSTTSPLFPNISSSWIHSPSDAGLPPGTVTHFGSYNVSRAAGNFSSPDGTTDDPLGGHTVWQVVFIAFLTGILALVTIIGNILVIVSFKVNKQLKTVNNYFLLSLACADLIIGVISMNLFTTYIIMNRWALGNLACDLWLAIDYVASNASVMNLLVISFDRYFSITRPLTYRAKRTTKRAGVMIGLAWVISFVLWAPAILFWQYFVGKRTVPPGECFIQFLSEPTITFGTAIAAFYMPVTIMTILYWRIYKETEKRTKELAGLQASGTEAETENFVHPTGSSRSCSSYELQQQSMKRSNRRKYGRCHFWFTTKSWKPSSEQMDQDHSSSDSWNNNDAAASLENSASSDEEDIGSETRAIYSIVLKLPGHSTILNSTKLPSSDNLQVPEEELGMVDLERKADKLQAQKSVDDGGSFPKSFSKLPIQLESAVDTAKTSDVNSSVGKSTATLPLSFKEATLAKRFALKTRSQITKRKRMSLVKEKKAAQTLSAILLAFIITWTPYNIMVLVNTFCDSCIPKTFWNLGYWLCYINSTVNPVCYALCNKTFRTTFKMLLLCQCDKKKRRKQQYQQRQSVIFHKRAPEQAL
Sequence of histamine H1 receptor (P35367 whole entry, species assumed): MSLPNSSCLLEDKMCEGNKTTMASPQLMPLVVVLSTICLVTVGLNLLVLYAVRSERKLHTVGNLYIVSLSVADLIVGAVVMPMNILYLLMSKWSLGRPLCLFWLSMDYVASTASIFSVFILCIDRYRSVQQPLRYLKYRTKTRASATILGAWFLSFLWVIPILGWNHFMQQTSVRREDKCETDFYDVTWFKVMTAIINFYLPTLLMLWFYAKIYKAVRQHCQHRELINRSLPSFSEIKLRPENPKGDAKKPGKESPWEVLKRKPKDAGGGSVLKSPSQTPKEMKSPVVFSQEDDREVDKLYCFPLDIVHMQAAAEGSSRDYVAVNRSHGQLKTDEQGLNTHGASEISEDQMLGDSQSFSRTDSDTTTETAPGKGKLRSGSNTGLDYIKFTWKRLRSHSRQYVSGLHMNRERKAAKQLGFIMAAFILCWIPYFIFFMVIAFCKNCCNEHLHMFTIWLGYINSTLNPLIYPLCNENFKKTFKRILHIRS
Sequence of Delta (DOP) receptor (P41143 whole entry): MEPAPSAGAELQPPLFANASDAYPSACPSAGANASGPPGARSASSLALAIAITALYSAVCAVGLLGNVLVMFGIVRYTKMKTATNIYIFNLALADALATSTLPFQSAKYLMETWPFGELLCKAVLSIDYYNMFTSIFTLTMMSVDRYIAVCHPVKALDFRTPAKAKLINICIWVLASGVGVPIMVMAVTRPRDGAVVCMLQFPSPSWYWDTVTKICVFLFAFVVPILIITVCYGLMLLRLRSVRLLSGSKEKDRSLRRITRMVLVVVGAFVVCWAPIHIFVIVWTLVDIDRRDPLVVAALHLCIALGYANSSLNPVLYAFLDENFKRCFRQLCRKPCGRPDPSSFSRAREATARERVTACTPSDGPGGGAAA

SMILES | Receptor Delta (DOP): mode of action (Delta (DOP) receptor) | Receptor Sigma: affinity (Sigma opiate sites) | Receptor Sigma: affinity (Sigma opiate sites; listed as compound 1) | activity at adrenergic receptor Alpha 1B [1] | activity at adrenergic receptor Alpha 2B [2] | activity at adrenergic receptor Alpha 2C [3] | activity at histamine H1 receptor (histamine H1 receptor) | activity at cholinergic muscarinic receptor 1 [4] | activity at cholinergic muscarinic receptor 3 [5] | activity at cholinergic muscarinic receptor 4 [6] | activity at cholinergic muscarinic receptor 5 [7] | activity at dopamine D4 receptor (dopamine D4 receptor) | activity at serotonin receptor 1A (serotonin receptor 1A) | opioid withdrawal signs (morphine addicted rats)
CCC(=O)NC1CC(C)N(CCc2ccccc2)CC1C (centres unmarked) [Compound 1, N-[2,5-dimethyl-1-(2-phenylethyl)piperidin-4-yl]propanamide] | Antagonist | High Affinity | further activity | antagonistic activity | antagonistic activity | antagonistic activity | antagonistic activity | antagonistic activity | antagonistic activity | antagonistic activity | antagonistic activity | antagonistic activity | antagonistic activity | few if any opioid withdrawal signs
C=CCN1CC[C@]23c4c5ccc(O)c4O[C@H]2C(=O)CC[C@@]3(O)[C@H]1C5 [Naloxone, reference compound] |  | Weak |  |  |  |  |  |  |  |  |  |  |  | withdrawal effects
O=C1CC[C@@]2(O)[C@H]3Cc4ccc(O)c5c4[C@@]2(CCN3CC2CC2)[C@H]1O5 [Naltrexone, reference compound] |  | Weak |  |  |  |  |  |  |  |  |  |  |  | 
